{"source": "paper PMC8571378", "about": "“Reversion analysis reveals the in vivo immunogenicity of a poorly MHC I-binding cancer neoepitope” (Nature Communications, 2021)", "key": {"[1]": {"tested_on": "tumor infiltrating CD45 + cells", "experiment": "scRNA seq of tumor infiltrating CD45+ cells in immunized mice", "assay_type": "in vivo, BALB/cJ mice", "description": "Tumor microenvironment (TME) of Ccdc85c^MUT-immunized mice was examined using single cell RNA sequencing (scRNA seq). BMDCs- immunized mice were used as controls. As a peptide control, mice immunized with a neoepitope Alms1^MUT were used. […] Mice were immunized with Ccdc85c^MUT, Alms1^MUT (peptide control) or BMDCs (control) as described in Methods, and were challenged with Meth A. RNA from CD45 + cells (estimated 15,925 cells for the four libraries after QC, with an average coverage of 32,663 reads per cell and median 1,339 genes per cell) was sequenced. Data from the four libraries were pooled and clustered based on the gene expression pattern of each as described in Methods. Annotation of the clusters was informed by both differentially expressed genes (DE Genes) and per cluster highly expressed genes identified by the TF-IDF analysis as described in Methods. Two major and distinct clusters were identified namely, myeloid and lymphoid. […] The proportion of lymphoid versus myeloid compartments in the Ccdc85c^MUT library was very different compared to the Alms1^MUT or control groups. The Ccdc85c^MUT library was mostly composed of lymphoid cells (62.68% lymphoid and 37.32% myeloid), while the control groups and mice immunized with Alms1^MUT were mostly composed of the myeloid compartment (~35% lymphoid and ~64% myeloid) (Fig. 2a, right panel). In order to study different cell types, lymphoid and myeloid clusters were re-clustered into 6 and 9 sub-clusters, respectively (Fig. 2a, bottom panel). The six identified lymphoid clusters were: CD4 T cells (CD4(1)), NKC(1), naive/early activated CD4 T cells (CD4(2), defined by a high expression of Sell, Il7r, Tcf7 and Ccr7 genes and low expression of Il2ra and lack of expression of effector and cytotoxicity genes), NKC(2) (less cytotoxic and active than NKC(1)), CD8 T cells (CD8) and proliferating CD4/CD8 T cells (Pr. CD4/CD8, defined by higher expression of Stmn1 and Mki67 genes and cell cycle gene expression analysis, described in Methods). The selected genes used as markers to annotate each lymphocyte cluster are listed in the summary heat map (Fig. 2b, right panel).\nFig. 2 Immune response in mice immunized with Ccdc85c^MUT and control neoepitope Alms1.1^MUT. a Tumors from mice immunized with Ccdc85c^MUT or Alms1.1^MUT as well as two groups of control mice immunized with BMDCs were harvested 10 days after tumor challenge. Tumor infiltrating CD45 + cells were sorted and analyzed by scRNA seq as described in Methods and Supplementary Fig 9b. Combined scRNA seq data from four libraries were analyzed. The t-SNE[34] plots of all intra-tumoral immune cells as well as myeloid and lymphoid compartments are shown in the top left panel. Myeloid and lymphoid composition for each library is shown on the right panel. The myeloid and lymphoid sub-clusters are shown in the bottom panels. See text for definition of each sub-cluster. b Heat maps of the indicated genes in the myeloid and lymphoid compartments are shown. The heat map genes were selected from the list of differentially expressed genes, genes with a high average TF-IDF score, and typical cell type markers. The average gene expression for each cluster was normalized by dividing it from the maximum value of each row (gene). c Summary heat map of selected genes associated with cytotoxicity for pooled activated T cells is shown. The heat map illustrates scaled (Z-scored) average gene expression by library. TEXT PRINTED IN THE PICTURE: (a) Alms1.1^MUT: Lymphoid cells: 34.28%; Myeloid cells: 65.72% | (a) Ccdc85c^MUT: Lymphoid cells: 62.68%; Myeloid cells: 37.32% DOUBTS OF THE COPYIST ABOUT THIS PICTURE: Panel a, bar chart: no measure is printed beside the percentages. I assigned them to 'Lymphoid cells' (blue) and 'Myeloid cells' (red) only by matching the colours of the plot next to it. / Panel a, bar chart: the control bars also carry percentages (Cont.1: 35.75% and 64.25%; Cont.2: 37.55% and 62.45%). […]"}, "[2]": {"tested_on": "Meth A", "experiment": "CD4 depletion (GK1.5) in immunized, Meth A-challenged mice", "assay_type": "in vivo, BALB/cJ mice", "description": "In order to determine if any peptides within Ccdc85c^MUT could be presented by MHC II molecules, we analyzed the interaction of H2-A^d and H2-E^d with TYIRPFETKVK, YIRPFETKVK and IRPFETKVK as well as their wild type counterparts, using a cell-surface density assay. In this assay, β-chains of H2-Ab1^d or H2-Eb1^d are expressed in fusion with the peptide of interest and the amount of cell-surface MHC II, as a measure of intrinsic stability of MHC II, is quantified in engineered conditions. The measured cell-surface MHC density correlates well with the actual affinity of the peptide to MHC II. […] This was observed when CD4 depletion was carried out during the priming phase alone (as in Supplementary Fig. 2b), or throughout the entire experiment including the effector phase (i.e. post tumor challenge).\nSupplementary Fig. 2. Assessing CD4 response to Ccdc85c . a Presentation of Ccdc85cMUT and Ccdc85cWT peptides by H2-IA and H2-IE are measured by cell-surface density assay. The y-axis indicates MHC/GFP (ratio of MHC MFI to GFP MFI) for MHC II-peptide, normalized to the MHC/GFP of the negative control peptide, G9, 9-mer all-glycine. Four technical and two independent biological repeats of this experiment have been practiced. The following additional negative control peptides are used: G12 (12-mer all-glycine) and GGS12 (4x(glycine-glycine-serine). b. Naïve BALB/cJ mice were injected with 250 µg of CD4 depleting GK1.5 antibody or isotype control during the priming phase (6 days before the first immunization). Mice were immunized, as described in the Methods, with Ccdc85cMUT and were challenged with 95,000 Meth A cells. The differences between tumor growth curves […]\n(1 picture or pasted object on this page, not shown here)"}, "[3]": {"details": "compared to control or Alms1^MUT libraries"}, "[4]": {"details": "tumors harvested 10 days after Meth A challenge"}}}
{"sequence": "DPSSTYIRPFETKVKLLD [18-mer peptide with the mutant amino acid near the center]", "values": [{"measurement": "contribution of library to myeloid cluster Mφ1", "setting": "[1]; Mφ1", "value": "~ 20%"}, {"measurement": "contribution of library to myeloid cluster Mφ2", "setting": "[1]; Mφ2, highest apart from Mφ1", "value": 13.4, "unit": "%"}, {"measurement": "contribution of library to myeloid cluster Mφ3", "setting": "[1]; Mφ3, lowest contribution", "value": 1.6, "unit": "%"}, {"measurement": "expression of cytotoxicity (Gzmb, Prf, Nkg7) and effector function (Ifng) genes in T cells", "setting": "[1]; [3]", "value": "significantly higher"}, {"measurement": "expression of genes involved in TCR engagement (Nr4a1 and Irf4) in T cells", "setting": "[1]; [3]", "value": "significantly higher"}, {"measurement": "expression of Eomes in T cells", "setting": "[1]; compared to other libraries", "value": "significantly higher"}, {"measurement": "contribution of library to pooled activated CD4 and CD8 T cells (clusters 1 and 5)", "setting": "[1]; proliferating CD4/CD8 T excluded", "value": 31, "unit": "%"}, {"measurement": "Lymphoid cells, fraction of intra-tumoral immune cells", "setting": "[1]; [4]", "value": 62.68, "unit": "%"}, {"measurement": "Myeloid cells, fraction of intra-tumoral immune cells", "setting": "[1]; [4]", "value": 37.32, "unit": "%"}, {"measurement": "fraction of NK cells from the NKC(1) (more cytotoxic and active) cluster", "setting": "[1]; [4]", "value": "~ 80%"}, {"measurement": "effect of CD4 T cell depletion on tumor rejection", "setting": "[2]; 250 µg GK1.5, priming phase (6 days before first immunization), 95,000 Meth A cells, listed as Ccdc85cMUT", "value": "not statistically significant"}, {"measurement": "effect of CD4 T cell depletion on tumor rejection", "setting": "[2]; 250 µg GK1.5, priming phase (6 days before first immunization), 95,000 Meth A cells, listed as Ccdc85c^MUT", "value": "did not lead to reproducible and statistically significant abrogation of tumor rejection"}, {"measurement": "effect of CD4 T cell depletion on tumor rejection", "setting": "[2]; depletion throughout the entire experiment including the effector phase", "value": "did not lead to reproducible and statistically significant abrogation of tumor rejection"}]}
